Source: patent US11999727B2 (Tango Therapeutics, Inc., priority 2020, dated 2024)

Tests used:
PRMT5 [1] = target: T1, PRMT5 (Homo sapiens, UniProt O14744); experiment: PRMT5 biochemical IC50 assay with SAM as cofactor; settings: PRMT5, SAM as cofactor; read-out: SAM IC50
T1 construct: purchased Viva (custom protein)

PRMT5 [2] = target: T1, PRMT5; experiment: PRMT5 biochemical IC50 assay with no cofactor; settings: PRMT5, no cofactor
From the text: Table 1 indicates IC50 values (μM) against PRMT5 for exemplary compounds in the presence of SAM as cofactor, with no cofactor, and with MTA as cofactor, respectively (columns 4-6). […] Ki values can be calculated from the IC50 values as described in the Examples section. As detailed in the Examples section, for the assay performed in the presence of SAM, IC50=Ki×1.5 (Ki=IC50/1.5).

PRMT5 [3] = target: T1, PRMT5; experiment: PRMT5 biochemical IC50 assay with MTA as cofactor; settings: PRMT5, MTA as cofactor; read-out: MTA IC50
[4] = test system: HAP1 MTAP-deleted cell line; experiment: SDMA in-cell western assay, HAP1 MTAP-deleted; format: cell-based; settings: for MTAP intact/deleted ratio: SDMA in-cell western; for IC50: Homo sapiens
From the text: Table 1 also indicates IC50 values in an MTAP-isogenic cell line pair for exemplary compounds in an SDMA in-cell western assay (columns 7-8). HAP1 MTAP-intact is a cell line in which endogenous levels of MTAP are expressed, and HAP1 MTAP-deleted is an MTAP-null cell line.

[5] = test system: HAP1 MTAP-deleted cell line; experiment: Viability assay, MTAP-deleted cell line; format: cell-based
From the text: Table 1 additionally indicates IC50 values in a viability assay for the MTAP-deleted cell line (column 10), indicating the effect of treatment with compound on cell survival.

[6] = read-out: No Cofactor/ rel IC50
[7] = Homo sapiens, HAP1, read-out: HAP1 MTAP deleted viability

T1 sequence (O14744 whole entry): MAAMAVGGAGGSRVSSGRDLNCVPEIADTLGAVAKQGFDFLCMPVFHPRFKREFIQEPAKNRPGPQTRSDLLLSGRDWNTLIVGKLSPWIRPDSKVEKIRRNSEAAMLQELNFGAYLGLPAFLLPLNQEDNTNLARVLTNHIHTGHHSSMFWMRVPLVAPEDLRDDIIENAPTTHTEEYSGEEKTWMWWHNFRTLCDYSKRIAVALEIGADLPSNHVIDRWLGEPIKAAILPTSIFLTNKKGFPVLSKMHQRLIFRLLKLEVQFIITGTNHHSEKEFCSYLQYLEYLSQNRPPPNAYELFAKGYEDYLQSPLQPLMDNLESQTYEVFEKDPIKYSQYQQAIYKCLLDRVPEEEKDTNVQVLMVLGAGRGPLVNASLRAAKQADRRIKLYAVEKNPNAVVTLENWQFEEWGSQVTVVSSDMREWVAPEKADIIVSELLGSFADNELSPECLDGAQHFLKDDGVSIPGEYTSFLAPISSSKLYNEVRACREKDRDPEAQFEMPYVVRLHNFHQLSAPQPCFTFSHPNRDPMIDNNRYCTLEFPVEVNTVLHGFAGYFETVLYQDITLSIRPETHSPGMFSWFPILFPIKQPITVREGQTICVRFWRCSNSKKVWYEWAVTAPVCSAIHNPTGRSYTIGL
T1 sequence (Q9BQA1 whole entry partner): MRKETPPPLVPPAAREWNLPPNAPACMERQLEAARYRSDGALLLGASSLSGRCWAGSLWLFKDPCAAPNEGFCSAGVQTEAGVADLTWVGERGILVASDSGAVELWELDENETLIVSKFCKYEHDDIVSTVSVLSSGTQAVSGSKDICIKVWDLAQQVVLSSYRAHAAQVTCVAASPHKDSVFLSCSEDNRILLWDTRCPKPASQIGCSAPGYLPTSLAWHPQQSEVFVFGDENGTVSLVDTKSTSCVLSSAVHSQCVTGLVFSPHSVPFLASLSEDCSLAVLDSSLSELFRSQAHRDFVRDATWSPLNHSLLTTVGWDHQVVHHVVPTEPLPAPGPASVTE

IC50 (PRMT5 [1]) [nM]	IC50 (PRMT5 [2]; read-out: No Cofactor/rel IC50) [nM]	IC50 (PRMT5 [3]) [nM]	Compound	IC50 [5, 7] [µM]	other results
> 500	> 500	50 to 500	NC(=O)c1cncc(NC(=O)C(=O)N2C[C@@H](CO)CC[C@H]2c2ccccc2)c1 (racemic) [Compound 285, 5-(2-(5-(hydroxymethyl)-2-phenylpiperidin-1-yl)-2-oxoacetamido)nicotinamide]		
> 500	> 500	50 to 500	NC(=O)c1cncc(NC(=O)C(=O)N2C[C@H](OC(F)F)CC[C@@H]2c2ccccc2)c1 (racemic) [Compound 400, 5-[[2-[(2R,5R)-5-(Difluoromethoxy)-2-phenyl-1-piperidyl]-2-oxo-acetyl]amino]pyridine-3-carboxamide]		
50 to 500	50 to 500	50 to 500	Cc1cc(NC(=O)C(=O)N2C[C@H](C)CC[C@H]2c2ccc3c(c2)CCC(=O)N3)cnc1C(F)(F)F (racemic) [Compound 650, 2-[(2R,5S)-5-Methyl-2-(2-oxo-3,4-dihydro-1H-quinolin-6-yl)-1-piperidyl]-N-[5-methyl-6-(trifluoromethyl)-3-pyridyl]-2-oxo-acetamide]		
> 500		> 500	Cc1ccc([C@H]2CC[C@H](C)CN2C(=O)C(=O)Nc2cncc(C)c2)cc1 (single isomer, unassigned) [Compound 12]		IC50 (PRMT5 [2]; [6]): > 500 nM
> 500		> 500	Cc1cncc(NC(=O)C(=O)N2C[C@@H](C)CC[C@@H]2c2ccc(C)c(C)c2)c1 (single isomer, unassigned) [Compound 19]		IC50 (PRMT5 [2]; [6]): > 500 nM

The next lines start with the compound.

Compound	IC50 (PRMT5 [1]) [nM]	IC50 (PRMT5 [2]; read-out: No Cofactor/rel IC50) [nM]	IC50 (PRMT5 [3]) [nM]	IC50 [5, 7] [µM]	other results
NC(=O)c1cncc(NC(=O)C(=O)N2C[C@H](OC(F)(F)F)CC[C@H]2c2ccccc2)c1 (racemic) [Compound 411, 5-[[2-Oxo-2-[2-phenyl-5-(trifluoromethoxy)-1-piperidyl]acetyl]amino]pyridine-3-carboxamide]	> 500	> 500	50 to 500		
Cc1cc(NC(=O)C(=O)N2CCC(N(C)C)C[C@H]2c2ccccc2)cnc1N (mixture of isomers) [Compound 975, N-(6-amino-5-methyl-3-pyridyl)-2-[(2S,4S)-4-(dimethylamino)-2-phenyl-1-piperidyl]-2-oxo-acetamide]	> 500	> 500			
CNc1ccc([C@@H]2CC(F)(F)[C@@H](C)CN2C(=O)C(=O)Nc2cnc(N)c(C)c2)cn1 (racemic) [Compound 1054]	50 to 500	50 to 500	50 to 500		
CCc1cc(NC(=O)C(=O)N2C[C@@H](C)[C@@H](OC(C)C)C[C@@H]2c2ccc3scnc3c2)cnc1N (racemic) [Compound 1235]					MTAP intact/deleted ratio ([4]; IC50 ratio HAP1 MTAP-intact vs HAP1 MTAP-deleted): A (an IC50 ratio greater than or equal to 10 fold); IC50 ([5]; viability assay, MTAP-deleted cell line, read-out: HAP1 MTAP deleted viability): < 1 µM
CC[C@H]1CC[C@H](c2ccccc2)N(C(=O)C(=O)Nc2cncc(C)c2)C1 (single isomer, unassigned) [Compound 18]	> 500		> 500		
Cc1cc(NC(=O)C(=O)N2C[C@H](C)CC[C@H]2c2ccccc2)cnc1N (single isomer, unassigned) [Compound 40]				> 10	
Cc1cncc(NC(=O)C(=O)N2C(C)C(C)CC[C@H]2c2ccccc2)c1 (single isomer, unassigned) [Compound 41]				> 10	
C[C@@H]1CC[C@@H](c2ccccc2)N(C(=O)C(=O)Nc2cncc(C(N)=O)c2)C1 (single isomer, unassigned) [Compound 71]				> 10	IC50 ([4]; HAP1, read-out: HAP1 MTAP deleted IC50): > 1000 nM
Cc1cc(NC(=O)C(=O)N2C[C@@H](C)CC[C@@H]2c2ccc(C(F)F)cc2)cnc1N (single isomer, unassigned) [Compound 410]				> 10	
Cc1cc(NC(=O)C(=O)N2C[C@H](C)CC[C@H]2c2ccc3c(c2)CC(=O)N3)cnc1N (single isomer, unassigned) [Compound 677]				> 10	
COc1ncc(NC(=O)C(=O)N2C[C@@H](C)CC[C@@H]2c2ccc3sc(CCN(C)C)nc3c2)cc1C(N)=O (single isomer, unassigned) [Compound 1378]					IC50 (PRMT5 [2]; [6]): < 50 nM; IC50 ([4]; HAP1, SDMA in-cell western, HAP1 MTAP-deleted, read-out: HAP 1 MTAP deleted IC50): < 100 nM; MTAP intact/deleted ratio ([4]; IC50 ratio HAP1 MTAP-intact / HAP1 MTAP-deleted): A (an IC50 ratio greater than or equal to 10 fold); IC50 ([5]; Homo sapiens, HAP1, viability, HAP1 MTAP-deleted cell line, read-out: HAP1 MTAP deleted viability): < 1 µM
